{"source": "patent US20200138734A1", "about": "“TOPICAL FORMULATION FOR TREATING BRUISING” (priority 2018, published 2020)", "system": "bruise", "key": {"[1]": {"conditions": "lower concentrations within 2% to 20% by weight"}}, "note": "Where two headings read alike, the source gives them in different places.", "data": [{"smiles": "CCC(C)O", "note": "(stereo not drawn) [2-Butanol]", "values": [{"measurement": "bruise resolution", "setting": "2-Butanol alone in the topical formulation, without penetrant", "value": "would not provide the bruise resolution"}, {"measurement": "side-effects (pain, itching, redness, exfoliation)", "setting": "4% -12% 2-Butanol by weight", "value": "resolved"}, {"measurement": "bruise resolution", "setting": "10% 2-Butanol by weight of topical formulation", "value": "very good bruise resolution"}, {"measurement": "frequency and severity of side-effects, such as pain, itching, redness and exfoliation", "setting": "higher concentrations within 2% to 20% by weight", "value": "increased"}, {"measurement": "efficacy of bruise resolution", "setting": "[1]", "value": "decreased"}, {"measurement": "frequency and severity of side-effects", "setting": "[1]", "value": "decreased"}]}]}
